Measurements: ChEMBL document CHEMBL1795324, “New class of acetylcholinesterase inhibitors from the stem bark of Knema laurina and their structural insights” (Bioorg Med Chem Lett, 2011)

These compounds were tested against Acetylcholinesterase (Electrophorus electricus, UniProt O42275).
Chain of Acetylcholinesterase (O42275 whole entry): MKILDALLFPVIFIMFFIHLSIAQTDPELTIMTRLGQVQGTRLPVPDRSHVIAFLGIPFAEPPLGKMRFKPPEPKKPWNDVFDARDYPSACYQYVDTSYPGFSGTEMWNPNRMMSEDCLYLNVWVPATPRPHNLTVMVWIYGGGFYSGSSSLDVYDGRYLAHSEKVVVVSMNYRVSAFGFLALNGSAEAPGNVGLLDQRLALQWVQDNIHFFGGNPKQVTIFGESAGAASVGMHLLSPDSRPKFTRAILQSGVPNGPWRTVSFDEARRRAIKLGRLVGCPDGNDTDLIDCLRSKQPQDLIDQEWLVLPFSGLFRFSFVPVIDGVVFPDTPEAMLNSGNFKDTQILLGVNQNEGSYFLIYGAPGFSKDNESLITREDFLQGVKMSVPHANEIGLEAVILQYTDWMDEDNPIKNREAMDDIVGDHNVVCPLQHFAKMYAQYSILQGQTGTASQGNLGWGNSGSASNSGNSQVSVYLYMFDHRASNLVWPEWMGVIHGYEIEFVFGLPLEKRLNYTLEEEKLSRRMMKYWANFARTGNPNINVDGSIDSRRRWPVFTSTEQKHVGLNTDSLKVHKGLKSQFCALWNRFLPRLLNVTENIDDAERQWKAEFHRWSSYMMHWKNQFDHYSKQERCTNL
Description: Inhibition of electric eel acetylcholinesterase using acetylthiocholine iodide as substrate after 10 mins by Ellman's spectrophotometric method

Compared with `CCCCC[C@H](O)/C=C/CCCCCCCc1cccc(O)c1C(=O)O`, `CCCCC[C@H](O)/C=C/CCCCCCCc1cccc(OC)c1C(=O)OC` is 110-fold higher in IC50: 3.18 µM for the first, 342 µM for the second.

`CCCC/C=C\CCCCCCCCCc1cccc(O)c1` and `CCCCCC/C=C\CCCCCCCCCc1cccc(O)c1` are within 1.5-fold of each other in IC50: 17.2 µM for the first, 13.1 µM for the second.

First: CCCC/C=C\CCCCCCCCCc1cccc(OC)c1
Second: CCCC/C=C\CCCCCCCCCc1cccc(OC)c1C(=O)OC
The IC50 of the first is 2-fold lower: 178 µM for the first, 358 µM for the second.

Work on `CCCCCC/C=C\CCCCCCCCCc1cccc(OC)c1C(=O)OC` yielded an IC50 of 303 µM.
